# Test results as given in patent US8952024B2, “Herbicidal pyrimidone derivatives” (E I du Pont de Nemours and Company, priority 2009, dated 2015).
# Legend:
# Type in all cases: in vivo
# [1] = tested on: goosegrass (Eleusine indica); assay: Test B pre-/postemergence plant response; conditions: Preemergence, 62 g ai/ha; scale 0 to 100 (0 no effect, 100 complete control)
# [2] = tested on: nightshade (eastern black nightshade, Solanum ptycanthum); assay: Test B pre-/postemergence plant response; conditions: Preemergence
# Outline: (§1)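 Steps: sow seed in loam–sand soil and spray preemergence, or grow plants in peat-based medium to 1–4 leaves (2–18 cm) and spray postemergence; formulation is non-phytotoxic solvent plus surfactant; hold in greenhouse 13–15 days; score visually vs controls, 0 = no effect, 100 = complete control.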
# [3] = tested on: sunflower (common oilseed sunflower, Helianthus annuus); assay: Test B pre-/postemergence plant response; conditions: Preemergence
# Outline: as §1
# [4] = tested on: galium (catchweed bedstraw, Galium aparine); assay: Test B pre-/postemergence plant response; conditions: Preemergence
# Outline: as §1
# wild oat (Avena fatua) = assay: Test B pre-/postemergence plant response
# Outline: as §1
# [5] = tested on: ragweed (common ragweed, Ambrosia elatior); assay: Test D pre-/postemergence plant response; conditions: Postemergence
# Outline: (§2)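 Visual 0–100 scoring (100 = complete control) versus untreated controls after 14–21 greenhouse days. Compounds, formulated in surfactant-containing non-phytotoxic solvent, were applied preemergence to seeded loam/sand and postemergence to 2–18 cm plants (1–4 leaves).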
# [6] = tested on: quackgrass (Elytrigia repens); assay: Test D pre-/postemergence plant response; conditions: Postemergence
# Outline: as §2
# [7] = tested on: groundsel (common groundsel, Senecio vulgaris); assay: Test D pre-/postemergence plant response; conditions: Postemergence
# Outline: as §2
# [8] = tested on: johnsongrass (Sorghum halepense); assay: Test D pre-/postemergence plant response; conditions: Postemergence
# Outline: as §2
# [9] = tested on: sandbur (southern sandbur, Cenchrus echinatus); assay: Test D pre-/postemergence plant response; conditions: Postemergence
# Outline: as §2
# [10] = tested on: large crabgrass (Digitaria sanguinalis); assay: Test D pre-/postemergence plant response; conditions: Postemergence
# Outline: as §2
# [11] = tested on: dallisgrass (Paspalum dilatatum); assay: Test D pre-/postemergence plant response; conditions: Postemergence
# Outline: as §2
# [12] = tested on: barnyardgrass (Echinochloa crus-galli); assay: Test D pre-/postemergence plant response; conditions: Postemergence
# Outline: as §2
# [13] = 31 g ai/ha, scale 0 to 100 (0 no effect, 100 complete control)
# [14] = 62 g ai/ha, scale 0 to 100 (0 no effect, 100 complete control)
# [15] = 250 g ai/ha, Preemergence, 0 to 100 scale
# [16] = Postemergence, 62 g ai/ha, scale 0 (no effect) to 100 (complete control), 13 to 15 days
# [17] = Postemergence, 125 g ai/ha, visual rating after 13 to 15 days, scale 0 (no effect) to 100 (complete control)
# [18] = Preemergence, 31 g ai/ha, scale 0 to 100 (0 no effect, 100 complete control)
# [19] = Preemergence, 125 g ai/ha, 0 to 100 scale
# [20] = 125 g ai/ha, scale 0 to 100 (0 no effect, 100 complete control)
# [21] = 250 g ai/ha, scale 0 to 100 (0 no effect, 100 complete control)
# [22] = 125 g ai/ha, scale 0 to 100, 0 no effect, 100 complete control
compound,measurement,setting,value
Cc1ccccc1-n1c(-c2cccc(Cl)c2)ncc(C(=O)C2=C(O)CCCC2=O)c1=O [Compound 36],"Plant response rating, Goosegrass",[1],90
same,"Plant response rating, Nightshade","[2]; 250 g ai/ha, 0 to 100 scale",98
same,"Plant response rating, Nightshade",[2]; [13],80
same,"Plant response rating, Nightshade",[2]; [14],95
same,Nightshade plant response rating,"[2]; 125 g ai/ha, 0 to 100 scale",95
same,"Plant response rating, Sunflower","[3]; 250 g ai/ha, 0 to 100 scale",85
same,"Plant response rating, Sunflower",[3]; [13],0
same,Sunflower plant response rating,"[3]; 125 g ai/ha, 0 to 100 scale",55
same,"Plant response rating, Galium","[4]; 250 g ai/ha, 0 to 100 scale",95
same,"Plant response rating, Galium",[4]; [13],10
same,"Plant response rating, Galium",[4]; [14],80
same,Galium plant response rating,"[4]; 125 g ai/ha, 0 to 100 scale",80
same,"Plant response rating, Oat, Wild",wild oat (Avena fatua); [15],0
same,"Plant response rating, Oat, Wild",wild oat (Avena fatua); [16],75
same,"Plant response rating, Oat, Wild",wild oat (Avena fatua); [17],75
same,"Plant response rating, Oat, Wild",wild oat (Avena fatua); [18],0
same,"Oat, Wild plant response rating",wild oat (Avena fatua); [19],0
O=C1CCCC(O)=C1C(=O)c1cnc(-c2ccccc2)n(-c2cccc(Br)c2)c1=O [Compound 38],"Plant response rating, Goosegrass",[1],100
same,"Plant response rating, Nightshade","[2]; 250 g ai/ha, 0 to 100 scale",100
same,"Plant response rating, Nightshade",[2]; [13],90
same,"Plant response rating, Nightshade",[2]; [14],95
same,Nightshade plant response rating,"[2]; 125 g ai/ha, 0 to 100 scale",98
same,"Plant response rating, Sunflower","[3]; 250 g ai/ha, 0 to 100 scale",75
same,"Plant response rating, Sunflower",[3]; [13],0
same,Sunflower plant response rating,"[3]; 125 g ai/ha, 0 to 100 scale",25
same,"Plant response rating, Galium","[4]; 250 g ai/ha, 0 to 100 scale",85
same,"Plant response rating, Galium",[4]; [13],0
same,"Plant response rating, Galium",[4]; [14],40
same,Galium plant response rating,"[4]; 125 g ai/ha, 0 to 100 scale",85
same,"Plant response rating, Oat, Wild",wild oat (Avena fatua); [15],20
same,"Plant response rating, Oat, Wild",wild oat (Avena fatua); [16],75
same,"Plant response rating, Oat, Wild",wild oat (Avena fatua); [17],80
same,"Plant response rating, Oat, Wild",wild oat (Avena fatua); [18],0
same,"Oat, Wild plant response rating",wild oat (Avena fatua); [19],0
Cc1c(Cl)cccc1-n1c(-c2ccccc2)ncc(C(=O)C2=C(O)CCCC2=O)c1=O [Compound 40],"Plant response rating, Goosegrass",[1],98
same,"Plant response rating, Nightshade","[2]; 250 g ai/ha, 0 to 100 scale",100
same,"Plant response rating, Nightshade",[2]; [13],65
same,"Plant response rating, Nightshade",[2]; [14],98
same,Nightshade plant response rating,"[2]; 125 g ai/ha, 0 to 100 scale",98
same,"Plant response rating, Sunflower","[3]; 250 g ai/ha, 0 to 100 scale",80
same,"Plant response rating, Sunflower",[3]; [13],20
same,Sunflower plant response rating,"[3]; 125 g ai/ha, 0 to 100 scale",75
same,"Plant response rating, Galium","[4]; 250 g ai/ha, 0 to 100 scale",90
same,"Plant response rating, Galium",[4]; [13],50
same,"Plant response rating, Galium",[4]; [14],70
same,Galium plant response rating,"[4]; 125 g ai/ha, 0 to 100 scale",85
same,"Plant response rating, Oat, Wild",wild oat (Avena fatua); [15],30
same,"Plant response rating, Oat, Wild",wild oat (Avena fatua); [16],85
same,"Plant response rating, Oat, Wild",wild oat (Avena fatua); [17],90
same,"Plant response rating, Oat, Wild",wild oat (Avena fatua); [18],0
same,"Oat, Wild plant response rating",wild oat (Avena fatua); [19],0
CCCCn1c(-c2cc(F)cc(F)c2)ncc(C(=O)C2=C(O)C3CCC(C3)C2=O)c1=O (stereo not shown) [Compound 245],"Plant response rating, Ragweed","[5]; 31 g ai/ha, scale 0 to 100",70
same,"Plant response rating, Ragweed",[5]; [14],75
same,"Plant response rating, Ragweed",[5]; [20],75
same,"Plant response rating, Ragweed",[5]; [21],75
same,"Plant response rating, Quackgrass","[6]; 31 g ai/ha, scale 0 to 100",20
same,"Plant response rating, Quackgrass",[6]; [14],35
same,"Plant response rating, Quackgrass",[6]; [20],40
same,"Plant response rating, Quackgrass",[6]; [21],65
same,"Plant response rating, Groundsel","[7]; 31 g ai/ha, scale 0 to 100",95
same,"Plant response rating, Groundsel",[7]; [14],100
same,"Plant response rating, Groundsel",[7]; [20],100
same,"Plant response rating, Groundsel",[7]; [21],100
same,"Plant response rating, Johnsongrass","[8]; 31 g ai/ha, scale 0 to 100",70
same,"Plant response rating, Johnsongrass",[8]; [14],75
same,"Plant response rating, Johnsongrass",[8]; [20],75
same,"Plant response rating, Johnsongrass",[8]; [21],75
same,"Plant response rating, Sandbur","[9]; 31 g ai/ha, scale 0 to 100",65
same,"Plant response rating, Sandbur",[9]; [14],70
same,"Plant response rating, Sandbur",[9]; [20],75
same,"Plant response rating, Sandbur",[9]; [21],75
same,"Plant response rating, Crabgrass, Large","[10]; 31 g ai/ha, scale 0 to 100",70
same,"Plant response rating, Crabgrass, Large",[10]; [14],70
same,"Plant response rating, Crabgrass, Large",[10]; [20],75
same,"Plant response rating, Crabgrass, Large",[10]; [21],75
same,"Plant response rating, Dallisgrass","[11]; 31 g ai/ha, scale 0 to 100",65
same,"Plant response rating, Dallisgrass",[11]; [14],75
same,"Plant response rating, Dallisgrass",[11]; [20],80
same,"Plant response rating, Dallisgrass",[11]; [21],85
same,"Plant response rating, Barnyardgrass","[12]; 31 g ai/ha, scale 0 to 100",80
same,"Plant response rating, Barnyardgrass",[12]; [14],85
same,"Plant response rating, Barnyardgrass",[12]; [20],85
same,"Plant response rating, Barnyardgrass",[12]; [21],90
same,"Plant response rating, Nightshade",[2]; [13],98
same,"Plant response rating, Nightshade",[2]; [14],100
same,"Plant response rating, Nightshade",[2]; [22],100
same,Nightshade plant response rating,"[2]; 250 g ai/ha, 0 to 100 scale",100
same,"Plant response rating, Sunflower",[3]; [13],45
same,"Plant response rating, Sunflower",[3]; [14],70
same,"Plant response rating, Sunflower",[3]; [22],80
same,Sunflower plant response rating,"[3]; 250 g ai/ha, 0 to 100 scale",95
same,"Plant response rating, Galium",[4]; [13],20
same,"Plant response rating, Galium",[4]; [14],60
same,"Plant response rating, Galium",[4]; [22],95
same,Galium plant response rating,"[4]; 250 g ai/ha, 0 to 100 scale",95
same,"Plant response rating, Oat, Wild","wild oat (Avena fatua); Postemergence, 31 g ai/ha, 0 to 100 scale (0 no effect, 100 complete control)",70
same,"Plant response rating, Oat, Wild","wild oat (Avena fatua); Postemergence, 62 g ai/ha, scale 0 to 100 (0 no effect, 100 complete control)",85
same,"Plant response rating, Oat, Wild","wild oat (Avena fatua); Postemergence, 125 g ai/ha, scale 0 (no effect) to 100 (complete control), 13 to 15 days",85
same,"Plant response rating, Oat, Wild","wild oat (Avena fatua); Postemergence, 250 g ai/ha, scale 0 to 100 (0 no effect, 100 complete control), 13 to 15 days",100
same,"Plant response rating, Oat, Wild",wild oat (Avena fatua); [18],0
same,"Plant response rating, Oat, Wild","wild oat (Avena fatua); Preemergence, 62 g ai/ha, scale 0 to 100 (0 no effect, 100 complete control)",0
same,"Plant response rating, Oat, Wild","wild oat (Avena fatua); Preemergence, 125 g ai/ha, scale 0 to 100, 0 no effect, 100 complete control",30
same,"Oat, Wild plant response rating","wild oat (Avena fatua); Preemergence, 250 g ai/ha, 0 to 100 scale",30
